# According to patent US4022606A, “Antimicrobial use of ω-aminocarboxylic acid amides” (Henkel & Cie G.m.b.H., priority 1973, dated 1977):
# Test system: Staphylococcus aureus
# Assay: Minimum inhibitory concentration, dilution test, germ 1
# Format: cell-based
# Settings: 72 h, 5 × 10^7 organisms/ml, 3 days at 37° C.
# Description: (§1) In order to measure the antimicrobial efficacy of the above-named ω-aminocarboxylic acid amides, their inhibitory effect upon the subsequently listed bacteria and fungi, as well as upon the germs in contaminated process water was determined.
# (§2) 1) Staphylococcus aureus
# (§3) The minimum inhibitory concentrations of the products to be tested were determined by means of the dilution test according to the standards for the examination of chemical disinfectants which had been published in 1959 by the Deutsche Gesellschaft fur Hygiene und Mikrobiologie (German Association for Hygiene and Microbiology). The tests were carried out in test tubes which were filled with Standard-I-Broth (Merck) or with beer wort (8° Be) and diluted 1:5 with tap water. After the addition of the active substances, the volume of the nutrient solution in the test tubes was adjusted to 10 ml. Next, the test tubes were inoculated with 0.1 ml test organism suspension. In the case of bacteria, the inoculated test tubes were incubated in the incubator for 3 days at 37° C. and in the case of fungi, they incubated for 6 days at 30° C. Subsequently, the concentration of the compound added to the nutrient medium which was just able to inhibit completely the growth of the germs was determined. The value thus determined was designated as the minimum inhibitory concentration (m.i.c.). The following concentration intervals were used for the tests: 1,000 ppm, 750 ppm, 500 ppm, 250 ppm, 100 ppm, 50 ppm, 25 ppm, 10 ppm, 7.5 ppm, 5 ppm, 2.5 ppm, and 1 ppm.
# (§4) The inhibitory concentrations of the individual products for the above-quoted germs which were determined in this dilution test are listed in the following Table III.
row,SMILES,MIC [µg/mL]
1,"CCCCCCCCCCCCNC(=O)CN.Cl [Product A, N-glycyl-dodecylamine hydrochloride]",50
2,"CCCCCCCCCCNC(=O)CCN [Product B, 3-aminopropionic acid-decylamide]",50
3,"CCCCCCCCCCCCNC(=O)CCCCCN(C)C [Product C, 6-(N,N-dimethylamino)capronic acid-dodecylamide]",25

# Test system: Escherichia coli
# Assay: Minimum inhibitory concentration, dilution test, germ 2
# Format: cell-based
# Settings: 72 h, 4 × 10^7 organisms/ml, 3 days at 37° C.
# Description: as §1
# (§5) 2) Escherichia coli 4 × 10^7 organisms/ml
# as §3, §4
row,SMILES,MIC [µg/mL]
1,"CCCCCCCCCCCCNC(=O)CN.Cl [Product A, N-glycyl-dodecylamine hydrochloride]",100
2,"CCCCCCCCCCNC(=O)CCN [Product B, 3-aminopropionic acid-decylamide]",50
3,"CCCCCCCCCCCCNC(=O)CCCCCN(C)C [Product C, 6-(N,N-dimethylamino)capronic acid-dodecylamide]",25

# Test system: Pseudomonas aeruginosa
# Assay: Minimum inhibitory concentration, dilution test, germ 3
# Format: cell-based
# Settings: 72 h, 4 × 10^7 organism/ml, 3 days at 37° C.
# Description: as §1
# (§6) 3) Pseudomonas aeruginosa
# as §3, §4
row,SMILES,MIC [µg/mL]
1,"CCCCCCCCCCCCNC(=O)CN.Cl [Product A, N-glycyl-dodecylamine hydrochloride]",500
2,"CCCCCCCCCCNC(=O)CCN [Product B, 3-aminopropionic acid-decylamide]",100
3,"CCCCCCCCCCCCNC(=O)CCCCCN(C)C [Product C, 6-(N,N-dimethylamino)capronic acid-dodecylamide]",1000

# Test system: Candida albicans
# Assay: Minimum inhibitory concentration, dilution test, germ 4
# Format: cell-based
# Settings: 144 h, 2 × 10^6 organisms/ml, 6 days at 30° C.
# Description: as §1
# 4) Candida albicans 2 × 10^6 organisms/ml
# as §3, §4
row,SMILES,MIC [µg/mL]
1,"CCCCCCCCCCCCNC(=O)CN.Cl [Product A, N-glycyl-dodecylamine hydrochloride]",50
2,"CCCCCCCCCCNC(=O)CCN [Product B, 3-aminopropionic acid-decylamide]",100
3,"CCCCCCCCCCCCNC(=O)CCCCCN(C)C [Product C, 6-(N,N-dimethylamino)capronic acid-dodecylamide]",100

# Test system: Aspergillus niger
# Assay: Minimum inhibitory concentration, dilution test, germ 5
# Format: cell-based
# Settings: 144 h, 9 × 10^5 organisms/ml, 6 days at 30° C.
# Description: as §1
# 5) Aspergillus niger 9 × 10^5 organisms/ml
# as §3, §4
row,SMILES,MIC [µg/mL]
1,"CCCCCCCCCCCCNC(=O)CN.Cl [Product A, N-glycyl-dodecylamine hydrochloride]",100
2,"CCCCCCCCCCNC(=O)CCN [Product B, 3-aminopropionic acid-decylamide]",100
3,"CCCCCCCCCCCCNC(=O)CCCCCN(C)C [Product C, 6-(N,N-dimethylamino)capronic acid-dodecylamide]",250

# Test system: Mixture of contaminated water from 3 cooling towers
# Assay: Minimum inhibitory concentration, dilution test, germ 6
# Format: cell-based
# Settings: not given
# Description: as §1
# 6) Mixture of contaminated water
# as §3, §4
row,SMILES,MIC [µg/mL]
1,"CCCCCCCCCCCCNC(=O)CN.Cl [Product A, N-glycyl-dodecylamine hydrochloride]",25
2,"CCCCCCCCCCNC(=O)CCN [Product B, 3-aminopropionic acid-decylamide]",25
3,"CCCCCCCCCCCCNC(=O)CCCCCN(C)C [Product C, 6-(N,N-dimethylamino)capronic acid-dodecylamide]",10

# Test system: Mixture of contaminated water from 3 scrubbers of air conditioning installations
# Assay: Minimum inhibitory concentration, dilution test, germ 7
# Format: cell-based
# Settings: not given
# Description: as §1
# 7) Mixture of contaminated water
# from 3 scrubbers of air con-
# ditioning installations
# as §3, §4
row,SMILES,MIC [µg/mL]
1,"CCCCCCCCCCCCNC(=O)CN.Cl [Product A, N-glycyl-dodecylamine hydrochloride]",25
2,"CCCCCCCCCCNC(=O)CCN [Product B, 3-aminopropionic acid-decylamide]",25
3,"CCCCCCCCCCCCNC(=O)CCCCCN(C)C [Product C, 6-(N,N-dimethylamino)capronic acid-dodecylamide]",10

# Test system: Staphylococcus aureus
# Assay: Microbicidal effect, suspension test, germ 1
# Format: cell-based
# Settings: 100 ppm in tap water, 18° C. to 21° C.
# Description: (§7) The microbicidal effect of some products named above was determined by means of the suspension test. The methodology of this testing procedure has been taken from the standards for the testing of chemical disinfectants, published in 1959 by the German Association for Hygiene and Microbiology. In conformity with these standards, 0.1 ml of a test organism suspension of the following enumerated bacteria or fungi was pipetted into test tubes at 18° C. to 21° C.
# as §2
# (§8) The products of the invention to be tested were dissolved in tap water of 16° dH (German degrees of hardness). Then, 10 ml of the respective dilution quantity of the product to be tested were added to each test tube. The concentrations of the products according to the invention were 100 ppm, 250 ppm and 500 ppm in each case. After a duration of action amounting to 1, 2.5, 5, 10, 20, 30 and 60 minutes, a loop of material was taken from each test tube and inoculated in 10 ml of nutrient solution which contained 3% Tween and 0.3% Lecithin as de-inhibitors. The nutrient solutions inoculated with bacteria were incubated at 37° C. whereas the nutrient solutions inoculated with fungi were incubated at 30° C. After 6 days, the growth of the cultures was macroscopically evaluated.
row,SMILES,Sterilization Time [min]
1,"CCCCCCCCCCCCNC(=O)CN.Cl [Product A, N-glycyl-dodecylamine hydrochloride]",10
2,"CCCCCCCCCCNC(=O)CCN [Product B, 3-aminopropionic acid-decylamide]",5
3,"CCCCCCCCCCCCNC(=O)CCCCCN(C)C [Product C, 6-(N,N-dimethylamino)capronic acid-dodecylamide]",5

# Same assay, conditions: 250 ppm in tap water, 18° C. to 21° C.
row,SMILES,Sterilization Time [min]
1,"CCCCCCCCCCCCNC(=O)CN.Cl [Product A, N-glycyl-dodecylamine hydrochloride]",5
2,"CCCCCCCCCCNC(=O)CCN [Product B, 3-aminopropionic acid-decylamide]",5
3,"CCCCCCCCCCCCNC(=O)CCCCCN(C)C [Product C, 6-(N,N-dimethylamino)capronic acid-dodecylamide]",2.5

# Same assay, conditions: 500 ppm in tap water, 18° C. to 21° C.
row,SMILES,Sterilization Time [min]
1,"CCCCCCCCCCCCNC(=O)CN.Cl [Product A, N-glycyl-dodecylamine hydrochloride]",5
2,"CCCCCCCCCCNC(=O)CCN [Product B, 3-aminopropionic acid-decylamide]",5
3,"CCCCCCCCCCCCNC(=O)CCCCCN(C)C [Product C, 6-(N,N-dimethylamino)capronic acid-dodecylamide]",2.5

# Test system: Escherichia coli
# Assay: Microbicidal effect, suspension test, germ 2
# Format: cell-based
# Settings: 100 ppm in tap water, 18° C. to 21° C.
# Description: as §7, §5, §8
row,SMILES,Sterilization Time [min]
1,"CCCCCCCCCCCCNC(=O)CN.Cl [Product A, N-glycyl-dodecylamine hydrochloride]",20
2,"CCCCCCCCCCNC(=O)CCN [Product B, 3-aminopropionic acid-decylamide]",10
3,"CCCCCCCCCCCCNC(=O)CCCCCN(C)C [Product C, 6-(N,N-dimethylamino)capronic acid-dodecylamide]",10

# Same assay, conditions: 250 ppm in tap water, 18° C. to 21° C.
row,SMILES,Sterilization Time [min]
1,"CCCCCCCCCCCCNC(=O)CN.Cl [Product A, N-glycyl-dodecylamine hydrochloride]",10
2,"CCCCCCCCCCNC(=O)CCN [Product B, 3-aminopropionic acid-decylamide]",10
3,"CCCCCCCCCCCCNC(=O)CCCCCN(C)C [Product C, 6-(N,N-dimethylamino)capronic acid-dodecylamide]",5

# Same assay, conditions: 500 ppm in tap water, 18° C. to 21° C.
row,SMILES,Sterilization Time [min]
1,"CCCCCCCCCCCCNC(=O)CN.Cl [Product A, N-glycyl-dodecylamine hydrochloride]",10
2,"CCCCCCCCCCNC(=O)CCN [Product B, 3-aminopropionic acid-decylamide]",10
3,"CCCCCCCCCCCCNC(=O)CCCCCN(C)C [Product C, 6-(N,N-dimethylamino)capronic acid-dodecylamide]",5

# Test system: Pseudomonas aeruginosa
# Assay: Microbicidal effect, suspension test, germ 3
# Format: cell-based
# Settings: 100 ppm in tap water, 18° C. to 21° C.
# Description: as §7, §6, §8
row,SMILES,Sterilization Time [min]
1,"CCCCCCCCCCCCNC(=O)CN.Cl [Product A, N-glycyl-dodecylamine hydrochloride]",60
2,"CCCCCCCCCCNC(=O)CCN [Product B, 3-aminopropionic acid-decylamide]",30
3,"CCCCCCCCCCCCNC(=O)CCCCCN(C)C [Product C, 6-(N,N-dimethylamino)capronic acid-dodecylamide]",30

# Same assay, conditions: 250 ppm in tap water, 18° C. to 21° C.
row,SMILES,Sterilization Time [min]
1,"CCCCCCCCCCCCNC(=O)CN.Cl [Product A, N-glycyl-dodecylamine hydrochloride]",20
2,"CCCCCCCCCCNC(=O)CCN [Product B, 3-aminopropionic acid-decylamide]",10
3,"CCCCCCCCCCCCNC(=O)CCCCCN(C)C [Product C, 6-(N,N-dimethylamino)capronic acid-dodecylamide]",10

# Same assay, conditions: 500 ppm in tap water, 18° C. to 21° C.
row,SMILES,Sterilization Time [min]
1,"CCCCCCCCCCCCNC(=O)CN.Cl [Product A, N-glycyl-dodecylamine hydrochloride]",10
2,"CCCCCCCCCCNC(=O)CCN [Product B, 3-aminopropionic acid-decylamide]",10
3,"CCCCCCCCCCCCNC(=O)CCCCCN(C)C [Product C, 6-(N,N-dimethylamino)capronic acid-dodecylamide]",5

# Test system: mixed suspension of Scenedesmus obliquus and Chlorella vulgaris
# Assay: Efficacy in inhibiting growth of algae
# Format: cell-based
# Settings: 168 h; after 7 days, pH 7.2; read-out: Minimum Inhibitory Concentration, growth of algae
# Description: The efficacy in inhibiting growth of algae was determined in cylindrical vessels under intensive aeration. Into the vessels, there were introduced 100 ml of a nutrient solution to which increasing quantities of active substances had been added as well as 4 ml of a mixed suspension of Scenedesmus obliquus and Chlorella vulgaris.
# The nutrition solution has the following composition:
# These compounds were dissolved in 1000 ml of distilled water. The pH value of the nutrient solution was 7.2. The tests were carried out with the following concentration intervals of the active substance: 10 ppm, 5 ppm, 2.5 ppm, 2 ppm, 1.5 ppm, 1 ppm, 0.75 ppm, 0.5 ppm, and 0.25 ppm.
row,SMILES,MIC [µg/mL]
1,"CCCCCCCCCCNC(=O)CCN [Product B, 3-aminopropionic acid-decylamide]",1
2,"CCCCCCCCCCCCNC(=O)CCCCCN(C)C [Product C, 6-(N,N-dimethylamino)capronic acid-dodecylamide]",0.75

# Test system: Desulfovibrio desulfuricans
# Assay: Inhibition of the growth of sulfate-reducing bacteria
# Format: cell-based
# Settings: 672 h, 6× 10^5 organisms/ml, 37° C., 4 weeks, pH 7.4, read-out: Inhibitory Concentration, growth of Desulfovibrio Desulfuricans
# Description: The minimum inhibitory concentrations were determined in 50 ml screw-top bottles. The bottles were charged with an optimum nutrient solution for the growth of sulfate-reducing bacteria of the following composition:
# which compounds were dissolved in 1000 ml of distilled water. The pH value of the nutrient solution was 7.4.
# After various concentrations of the products to be tested had been added, 1 ml of a pure culture of Desulfovibrio desulfuricans 6× 10^5 organisms/ml was used for inoculation, followed by incubation at 37° C. for 4 weeks. The following concentration intervals were used for the tests: 100 ppm, 50 ppm, 40 ppm, 30 ppm, 20 ppm, 10 ppm, 5 ppm, 2.5 ppm, and 1 ppm.
# In this test, the minimum inhibitory concentrations listed in the following Table VI were determined for the individual products.
row,SMILES,MIC [µg/mL]
1,"CCCCCCCCCCNC(=O)CCN [Product B, 3-aminopropionic acid-decylamide]",5
2,"CCCCCCCCCCCCNC(=O)CCCCCN(C)C [Product C, 6-(N,N-dimethylamino)capronic acid-dodecylamide]",2.5
